PubChem BioAssay (NCI)
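Briefly, cells in 96-well plates were exposed to five compound concentrations for 48 h, and endpoints were estimated by linear interpolation. Definition used: TGI = concentration required for complete inhibition of growth.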

Key:
Assay in all cases: NCI tumour cell line growth inhibition, 48 h
[1] = tested on: MDA-N
[2] = tested on: COLO 205 colon
[3] = tested on: NCI-H460 lung
[4] = tested on: K-562 leukemia
[5] = tested on: SK-OV-3 ovarian
[6] = tested on: NCI-H23 lung
[7] = tested on: EKVX NSCLC
[8] = tested on: SNB-19 CNS
[9] = tested on: SNB-75 CNS
[10] = tested on: HS 578T breast
[11] = tested on: HCC-2998 colon
[12] = tested on: HCT-116 colon
[13] = tested on: UACC-257 melanoma
[14] = tested on: MDA-MB-435
[15] = tested on: SK-MEL-2 melanoma
[16] = tested on: DU-145 prostate
[17] = tested on: HL-60(TB) leukemia
[18] = tested on: SK-MEL-28 melanoma
[19] = tested on: RPMI-8226 leukemia
[20] = tested on: T-47D breast
[21] = tested on: MDA-MB-231 breast
[22] = tested on: BT-549 breast
[23] = tested on: CCRF-CEM leukemia
[24] = tested on: HOP-92 NSCLC
[25] = tested on: OVCAR-4 ovarian
[26] = tested on: NCI/ADR-RES ovarian
[27] = tested on: NCI-H226 lung
[28] = tested on: LOX IMVI melanoma
[29] = tested on: IGROV1 ovarian
[30] = tested on: OVCAR-5 ovarian
[31] = tested on: OVCAR-3 ovarian
[32] = tested on: UACC-62 melanoma
[33] = tested on: HOP-62 NSCLC
[34] = tested on: KM12 colon
[35] = tested on: M14 melanoma
[36] = tested on: TK-10 renal
[37] = tested on: SF-295 CNS
[38] = tested on: NCI-H522 lung
[39] = tested on: MOLT-4 leukemia
[40] = tested on: U251 CNS
[41] = tested on: A549 NSCLC
[42] = tested on: SN12C renal
[43] = tested on: MALME-3M melanoma
[44] = tested on: MCF7 breast
[45] = tested on: SF-539 CNS
[46] = tested on: ACHN renal
[47] = tested on: A498 renal
[48] = tested on: SW-620 colon
[49] = tested on: HT29 colon
[50] = tested on: HCT-15 colon
[51] = tested on: RXF 393 renal
[52] = tested on: OVCAR-8 ovarian
[53] = tested on: 786-0 renal
[54] = tested on: SF-268 CNS
[55] = tested on: PC-3 prostate
[56] = tested on: CAKI-1 renal
[57] = tested on: SK-MEL-5 melanoma
[58] = tested on: UO-31 renal
[59] = tested on: SR leukemia

O=CN1CCN(C(=O)c2ccc(Cl)cc2Cl)C1=S
TGI [1]: > 100 µM
TGI [2]: > 100 µM
TGI [3]: > 100 µM
TGI [4]: > 100 µM
TGI [5]: > 100 µM
TGI [6]: > 100 µM
TGI [7]: > 100 µM
TGI [8]: > 100 µM
TGI [9]: 85.5 µM
TGI [10]: > 100 µM
TGI [11]: > 100 µM
TGI [12]: > 100 µM
TGI [13]: > 100 µM
TGI [14]: > 100 µM
TGI [15]: > 100 µM
TGI [16]: > 100 µM
TGI [17]: 69.2 µM
TGI [18]: > 100 µM
TGI [19]: > 100 µM
TGI [20]: > 100 µM
TGI [21]: > 100 µM
TGI [22]: > 100 µM
TGI [23]: > 100 µM
TGI [24]: 98.7 µM
TGI [25]: > 100 µM
TGI [26]: > 100 µM
TGI [27]: > 100 µM
TGI [28]: > 100 µM
TGI [29]: > 100 µM
TGI [30]: > 100 µM
TGI [31]: > 100 µM
TGI [32]: > 100 µM
TGI [33]: > 100 µM
TGI [34]: > 100 µM
TGI [35]: > 100 µM
TGI [36]: > 100 µM
TGI [37]: > 100 µM
TGI [38]: 46.8 µM
TGI [39]: > 100 µM
TGI [40]: > 100 µM
TGI [41]: > 100 µM
TGI [42]: > 100 µM
TGI [43]: > 100 µM
TGI [44]: > 100 µM
TGI [45]: > 100 µM
TGI [46]: > 100 µM
TGI [47]: > 100 µM
TGI [48]: > 100 µM
TGI [49]: > 100 µM
TGI [50]: > 100 µM
TGI [51]: > 100 µM
TGI [52]: > 100 µM
TGI [53]: > 100 µM
TGI [54]: > 100 µM
TGI [55]: > 100 µM
TGI [56]: > 100 µM

CCCN1C(=O)CC(C)N(Cc2ccccc2Cl)C1=S (configuration not stated)
TGI [1]: 60.6 µM
TGI [2]: 32.9 µM
TGI [3]: > 100 µM
TGI [5]: > 100 µM
TGI [6]: 56.7 µM
TGI [7]: 93.7 µM
TGI [8]: > 100 µM
TGI [10]: > 100 µM
TGI [12]: 79.4 µM
TGI [13]: 38 µM
TGI [14]: 65.9 µM
TGI [15]: 44.1 µM
TGI [16]: > 100 µM
TGI [17]: > 100 µM
TGI [18]: 62.4 µM
TGI [19]: 70.4 µM
TGI [20]: 44.1 µM
TGI [21]: 97 µM
TGI [22]: 57.5 µM
TGI [23]: > 100 µM
TGI [24]: 69.3 µM
TGI [25]: > 100 µM
TGI [26]: 53.1 µM
TGI [28]: 54.9 µM
TGI [29]: > 100 µM
TGI [30]: > 100 µM
TGI [31]: 88.8 µM
TGI [32]: 46.3 µM
TGI [33]: > 100 µM
TGI [34]: 92.5 µM
TGI [35]: 79.9 µM
TGI [36]: 67.4 µM
TGI [37]: > 100 µM
TGI [38]: 56.6 µM
TGI [39]: > 100 µM
TGI [40]: 67.8 µM
TGI [41]: > 100 µM
TGI [42]: 94.8 µM
TGI [43]: 56.7 µM
TGI [44]: 78.4 µM
TGI [45]: 36 µM
TGI [46]: 88.4 µM
TGI [47]: 47 µM
TGI [48]: > 100 µM
TGI [49]: > 100 µM
TGI [57]: 33.4 µM
TGI [50]: > 100 µM
TGI [51]: 21.9 µM
TGI [52]: 72.1 µM
TGI [53]: > 100 µM
TGI [54]: 86.5 µM
TGI [55]: 55.7 µM
TGI [56]: > 100 µM

Cc1ccc(S(=O)(=O)NC(=O)C2C(=O)CC3(CCCCC3)CC2=O)cc1
TGI [1]: > 100 µM
TGI [2]: 32.2 µM
TGI [3]: 74.9 µM
TGI [4]: > 100 µM
TGI [5]: > 100 µM
TGI [6]: > 100 µM
TGI [7]: 61.9 µM
TGI [8]: > 100 µM
TGI [9]: > 100 µM
TGI [10]: > 100 µM
TGI [12]: 74.4 µM
TGI [13]: 78.1 µM
TGI [14]: > 100 µM
TGI [16]: > 100 µM
TGI [17]: 65.8 µM
TGI [19]: 51.5 µM
TGI [20]: > 100 µM
TGI [21]: > 100 µM
TGI [22]: 75 µM
TGI [23]: 69.8 µM
TGI [24]: 45.6 µM
TGI [25]: > 100 µM
TGI [26]: 37.9 µM
TGI [27]: > 100 µM
TGI [28]: > 100 µM
TGI [29]: 71.1 µM
TGI [30]: > 100 µM
TGI [31]: 92.2 µM
TGI [32]: 83.8 µM
TGI [33]: > 100 µM
TGI [34]: 50 µM
TGI [35]: > 100 µM
TGI [36]: 62.1 µM
TGI [37]: 67.1 µM
TGI [38]: 59.9 µM
TGI [39]: > 100 µM
TGI [40]: > 100 µM
TGI [41]: > 100 µM
TGI [42]: 86.4 µM
TGI [44]: 55.7 µM
TGI [58]: 60.4 µM
TGI [45]: 77.5 µM
TGI [46]: 62.1 µM
TGI [47]: 80.6 µM
TGI [48]: 84.7 µM
TGI [49]: 92.5 µM
TGI [57]: 67 µM
TGI [50]: 62.4 µM
TGI [51]: > 100 µM
TGI [52]: 87.1 µM
TGI [53]: > 100 µM
TGI [54]: > 100 µM
TGI [55]: 81.3 µM
TGI [56]: 65.9 µM

Cc1cnc2sn(-c3ccc(Oc4ccccc4)cc3)c(=O)c2c1
TGI [59]: 44 µM
TGI [1]: 51.1 µM
TGI [2]: 47.1 µM
TGI [3]: 23.1 µM
TGI [5]: > 100 µM
TGI [6]: 80.3 µM
TGI [7]: 27.7 µM
TGI [8]: 46 µM
TGI [9]: 34.5 µM
TGI [10]: 50.9 µM
TGI [11]: 22.8 µM
TGI [12]: 71.4 µM
TGI [13]: 43.7 µM
TGI [14]: > 100 µM
TGI [15]: > 100 µM
TGI [16]: 37.8 µM
TGI [17]: > 100 µM
TGI [18]: 33.3 µM
TGI [19]: > 100 µM
TGI [20]: 37.7 µM
TGI [21]: 37.6 µM
TGI [22]: 42.2 µM
TGI [23]: > 100 µM
TGI [25]: 32.9 µM
TGI [26]: 55.7 µM
TGI [27]: 47.6 µM
TGI [28]: 81 µM
TGI [29]: 45.5 µM
TGI [30]: 35.3 µM
TGI [31]: 23.3 µM
TGI [32]: 30.7 µM
TGI [33]: 36.7 µM
TGI [34]: 28 µM
TGI [35]: 30.8 µM
TGI [36]: 40.1 µM
TGI [37]: 39.3 µM
TGI [38]: 25.3 µM
TGI [39]: > 100 µM
TGI [40]: 46 µM
TGI [41]: 46 µM
TGI [42]: 43 µM
TGI [43]: 9.07 µM
TGI [44]: 75.4 µM
TGI [58]: 42.8 µM
TGI [45]: 31.7 µM
TGI [46]: 31.6 µM
TGI [48]: 70.7 µM
TGI [49]: 39.6 µM
TGI [57]: 39.6 µM
TGI [50]: 23.9 µM
TGI [52]: > 100 µM
TGI [53]: 30.7 µM
TGI [54]: 38.2 µM
TGI [55]: 29.8 µM
